Reference: US5262433A, “Tetrazoleacetic acid derivatives and method of aldose reductase inhibition therewith” (Wakamoto Pharmaceutical Co., Ltd., priority 1991, dated 1993)

Experiments:
[1] = test system: sorbitol accumulation in sciatic nerve; assay: Inhibitory activity test against sorbitol accumulation in sciatic nerve of streptozotocin diabetic rats; type: in vivo, rat (Sprague-Dawley); conditions: for Rate of Inhibition of Sorbitol Accumulation in Sciatic Nerve (10 mg/kg): comparative compounds III (Table 4); for Rate of Inhibition of Sorbitol Accumulation, Sciatic nerve, 10 mg/kg: 10 mg/kg oral once a day for 5 days; for Rate of Inhibition of Sorbitol Accumulation, Sciatic nerve, 100 mg/kg: 100 mg/kg oral once a day for 5 days
Procedure: (§1) Groups of 6 to 8-week-old Sprague-Dawley male rats (4 animals per group) were fasted for 18 hours and streptozotocin was injected through the tail vein in a dose of 60 mg/kg, to obtain diabetic rats.
(§2) Immediately after the administration of streptozotocin, each compound to be tested was orally administered to these rats in the form of a suspension at a dose of 5 mg/kg, 10 mg/kg and 100 mg/kg (each was suspended in a 0.5% sodium carboxymethyl cellulose solution) once a day (at 9 a.m.) for 5 days.
(§3) During the test, the rats took diet and drank water freely. Four hours after the final administration of the drug in the 5th day's morning (at 9 a.m.), the rats were sacrificed and then the sciatic nerve and lens were removed to determine the amounts of sorbitol accumulated therein.
(§4) The results are expressed in the percentage obtained when the value obtained on the control to which no drug was administered is defined 100.

[2] = test system: sorbitol accumulation in lens; assay: Inhibitory activity test against sorbitol accumulation in lens of streptozotocin diabetic rats; type: in vivo, rat (Sprague-Dawley); conditions: 100 mg/kg oral once a day for 5 days, STZ diabetic rats
Procedure: as §1, §2, §3, §4

aldose reductase = molecular target: T1, aldose reductase (Rattus norvegicus, UniProt P07943); assay: Aldose Reductase Inhibition Test; type: biochemical, rat (male SD rats, crystalline lenses); conditions: rat lens enzyme; DL-glyceraldehyde 10 mM, pH 6.2, 30° C., 5 minutes
T1 construct: crystalline lenses were immediately removed and stored at -80° C; from tissue; host or cells: crystalline lenses of six-week-old male SD rats
Procedure: Six-week-old male SD rats were anesthetized with ether and killed. The their crystalline lenses were immediately removed and stored at -80° C. The lenses were homogenized in 3 volumes of 135 mM sodium potassium phosphate buffer (pH 7.0) and centrifuged at 30,000 rpm for 30 minutes. The resulting supernatant was dialyzed overnight against 0.05M sodium chloride solution to obtain an aldose reductase solution. All operations were conducted at 4° C. and the enzyme solution was stored at -80° C.
The activity of aldose reductase was determined according to a partially modified method of J. H. Kinoshita et al. (J. Biol. Chem., 1965, 240, p. 877). More specifically, 0.1 ml of DL-glyceraldehyde (final concentration: 10 mM) was added to 0.9 ml of 100 mM sodium potassium phosphate buffer (pH 6.2) which contained lithium sulfate (final concentrationL 400 mM), reduced nicotinamide adenine dinucleotide phosphate (final concentration: 0.15 mM), the enzyme solution, and the compound to be evaluated (final concentration: 10^-5 M, 10^-6 M, 10^-7 M or 10^-8 M), and then the reaction was conducted at 30° C. for 5 minutes. During the reaction, the change in the absorbance at 340 nm with time was monitored.
The maximum reducing rate of the absorbance (U) during the reaction was determined. By subtracting, from this value, the maximum reducing rate (U0) at 340 nm of the reaction solution before the addition of the substrate (DL-glyceraldehyde), the reaction rate (V=U-U0) was calculated as a true reaction rate in the presence of the compound to be tested.
The same procedure was repeated except for the absence of the compound to be tested. A true reaction rate (V0) in case the enzyme was not inhibited was calculated (V0 =U^1 -U0^1). The aldose reductase inhibitory activity of the test compounds was determined according to the following formula:
Rate of Inhibition (%)=(V0 -V)/V0 ×100
The concentration of inhibitor giving 50% inhibition of enzyme activity (IC50) was estimated from the least-square regression line of the log dose-response curve.

[3] = sciatic nerve, STZ diabetic rats

Compound	Rate of Inhibition of Sorbitol Accumulation in Sciatic Nerve (10 mg/kg) ([1]; sciatic nerve) [%]	Rate of Inhibition of Sorbitol Accumulation, lens, 100 mg/kg [2] [%]	IC50 (aldose reductase) [µM]	Rate of Inhibition of Sorbitol Accumulation, Sciatic nerve, 5 mg/kg ([1]; po, 5 mg/kg, 120 h) [%]	Rate of Inhibition of Sorbitol Accumulation, Sciatic nerve, 10 mg/kg [1, 3] [%]	Rate of Inhibition of Sorbitol Accumulation, Sciatic nerve, 100 mg/kg [1, 3] [%]	sorbitol accumulation rate [1] [%]	Rate of Inhibition of Sorbitol Accumulation, Sciatic nerve, 5 mg/kg ([1]; sciatic nerve, 5 mg/kg oral once a day for 5 days, STZ diabetic rats) [%]
[5-(2-methylthio-3-thienyl)tetrazol-1-yl]acetic acid 2-hydroxyethyl ester [Example 2]	63							
[5-[5-(3-phenylpropyl)-2-thienyl]tetrazol-1-yl]acetic acid 2-hydroxyethyl ester [Example 5]	40							
O=C(Cn1nnnc1-c1ccoc1)OCCO [Example 12, [5-(3-furyl)tetrazol-1-yl] acetic acid 2-hydroxyethyl ester]		68	0.36	41	70	107		
CCOC(=O)Cn1nnnc1-c1ccsc1 [compound 2, reference compound]							63	
O=C(Cn1nnnc1-c1ccccc1)OCCO [Example 6, (5-phenyltetrazol-1-yl) acetic acid 2-hydroxyethyl ester]		24	3.1	29	46	103		
O=C(Cn1nnnc1-c1ccsc1)OCCCCO [Example 16, [5-(3-thienyl)tetrazol-1-yl]acetic acid 4-hydroxybutyl ester]		-10	0.39	-5	35	103		
[5-[(3-methylsulfonylamino)-2-thienyl]tetrazol-1-yl] acetic acid 2-hydroxyethyl ester [Example 4]	40							
[5-(2-thienyl)tetrazol-1-yl] acetic acid 2-hydroxyethyl ester [Example 3]	35							
CC(/C=C1\SC(=S)N(CC(=O)O)C1=O)=C\c1ccccc1 [ONO-2235, (E)-3-carboxymethyl-5-[(2E)-methyl-30 phenylpropenylidene]rhodan, reference compound]					0	40		0
O=C(Cn1nnnc1-c1ccsc1)OCCCCCO [Example 18, [5-(3-thienyl)tetrazol-1-yl]acetic acid 5-hydroxypentyl ester]		7	1.3	-27	16	102		
O=C(Cn1nnnc1-c1ccsc1)OCCO [Example 1, [5-(3-thienyl)tetrazol-1-yl] acetic acid 2-hydroxyethyl ester]		50	0.36	48	73	102	73	
O=C(Cn1nnnc1-c1ccsc1)OCCCO [Example 15, [5-(3-thienyl)tetrazol-1-yl]acetic acid 3-hydroxypropyl ester]		36		24	37	110		
O=C(O)Cn1nnnc1-c1ccsc1 [reference compound]	53							
COCCOC(=O)Cn1nnnc1-c1ccsc1 [Example 19, [5-(3-thienyl)tetrazol-1-yl]acetic acid 2-methoxyethyl ester]		13	0.21	22	38	103		
